Biological target: T1, p53 Y220C (Homo sapiens, UniProt P04637, Y220C)
T1 construct: The recombinant protein was a truncation mutant containing only amino acids 94-312 of p53; made in house; host or cells: E. coli
Experiment: In vitro DNA binding activity assay (HTRF / TR-FRET): stabilization of p53 Y220C and increase of its DNA binding activity
Format: biochemical
Conditions: recombinant His-tagged p53 Y220C DNA binding domain (aa 94-312), biotin-labeled consensus DNA, incubated at 27° C. or 29° C. for 60 min
In short: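 Compound effect on DNA binding of recombinant His-p53 Y220C (E. coli) to biotin-labeled consensus DNA, expressed as SC150, the concentration giving 50% increase versus untreated. Serial 3-fold DMSO dilutions of 4.5 mM stocks; room-temperature steps of 15 then 20 min.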

T1 sequence (P04637 94-312, change not shown): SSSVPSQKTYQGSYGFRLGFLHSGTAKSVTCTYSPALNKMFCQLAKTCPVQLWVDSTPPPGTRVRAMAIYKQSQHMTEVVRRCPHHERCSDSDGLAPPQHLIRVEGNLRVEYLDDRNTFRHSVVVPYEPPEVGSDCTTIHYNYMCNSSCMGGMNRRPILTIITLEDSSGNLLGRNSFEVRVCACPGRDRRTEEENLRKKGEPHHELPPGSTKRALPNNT

Structure (SMILES)	SC150 (concentration of the compound required to increase the DNA binding activity by 50%)
CCNC(=O)c1ccc(NCC#Cc2cc3c(N[C@H]4CC[C@@H](N(C)C)CC4)cccc3n2CC(F)(F)F)c(OC)c1 [Compound 102A, N-ethyl-3-methoxy-4-{[3-(4-{[(1S,4S)-4-(dimethylamino)cyclo-hexyl]amino}-1-(2,2,2-trifluoroethyl)-1H-indol-2-yl)prop-2-yn-1-yl]amino}benzamide]	+ (+ = 0 μM ≤ SC150 < 0.05 μM)
CN(C)[C@H]1CC[C@H](Nc2cccc3c2cc(C#CCn2c(=O)oc4cc(S(C)(=O)=O)ccc42)n3CC(F)(F)F)CC1 [Compound 125A, 3-(3-(4-(((1R,4R)-4-(dimethylamino)cyclohexyl)amino)-1-(2,2,2-trifluoroethyl)-1H-indol-2-yl)prop-2-yn-1-yl)-6-(methylsulfonyl)benzo[d]oxazol-2 (3H)-one]	++++ (++++ = 0.2 μM ≤ SC150 < 1 μM)
CNC(=O)c1ccc(NCC#Cc2cc3c(N[C@H]4CC[C@H](N5CC6COCC6C5)CC4)cccc3n2CC(F)(F)F)c(OC)c1 (stereo partly drawn) [Compound 434A, 3-methoxy-N-methyl-4-{[3-(4-{[(1R,4R)-4-{hexahydro-1H-furo[3,4-c]pyrrol-5-yl}cyclohexyl]amino}-1-(2,2,2-trifluoroethyl)-1H-indol-2-yl)prop-2-yn-1-yl]amino}benzamide]	+ (+ = 0 μM ≤ SC150 < 0.05 μM)
COc1cc(C(=O)N[C@@H]2[C@@H](O)[C@H](O)[C@@H](CO)O[C@H]2O)ccc1NCC#Cc1cc2c(N[C@@H]3CCN(C)C[C@@H]3F)cccc2n1CC(F)(F)F [Compound 948A, 4-((3-(4-(((3S,4R)-3-fluoro-1-methylpiperidin-4-yl)amino)-1-(2,2,2-trifluoroethyl)-1H-indol-2-yl)prop-2-yn-1-yl)amino)-3-methoxy-N-((2R,3R,4R,5S,6R)-2,4,5-trihydroxy-6-(hydroxymethyl)tetrahydro-2H-pyran-3-yl)benzamide]	+ (+ = 0 μM ≤ SC150 < 0.05 μM)
CS(=O)(=O)c1ccc(NCC#Cc2cc3c(N[C@H]4CC[C@@H](N5CC6(COC6)C5)CC4)cccc3n2CC(F)(F)F)c(OCCO)c1 [Compound 226A, 2-(5-methanesulfonyl-2-{[3-(4-{[(1S,4S)-4-{2-oxa-6-azaspiro[3.3]heptan-6-yl}cyclo-hexyl]amino}-1-(2,2,2-trifluoroethyl)-1H-indol-2-yl)prop-2-yn-1-yl]amino}phenoxy)ethan-1-ol]	+ (+ = 0 μM ≤ SC150 < 0.05 μM)
CCN(CC)[C@H]1CC[C@H](Nc2cccc3c2cc(C#CCNc2ccc(C(=O)NC)cc2OC)n3CC(F)(F)F)CC1 [Compound 144A, 3-methoxy-N-methyl-4-{[3-(4-([(1R,4R)-4-(diethylamino)cyclohexyl]amino}-1-(2,2,2-trifluoro-ethyl)-1H-indol-2-yl)prop-2-yn-1-yl]amino}benzamide]	+ (+ = 0 μM ≤ SC150 < 0.05 μM)
COc1cc(S(=O)(=O)Nc2cc(C)on2)ccc1NCC#Cc1cc2c(N[C@H]3CC[C@H](N(C)C)CC3)cccc2n1CC(F)(F)F [Compound 55A, 3-methoxy-N-(5-methyl-1,2-oxazol-3-yl)-4-{[3-(4-{[(1R,4R)-4-(dimethylamino)cyclohexyl]amino}-1-(2,2,2-trifluoroethyl)-1H-indol-2-yl)prop-2-yn-1-yl]amino}benzene-1-sulfonamide]	+ (+ = 0 μM ≤ SC150 < 0.05 μM)
CNC(=O)c1ccc(NCC#Cc2cc3c(N[C@H]4CC[C@H](NC)CC4)cccc3n2CC(F)(F)F)c(OC)c1 [Compound 23A, 3-methoxy-N-methyl-4-{[3-(4-{[(1R,4R)-4-(methylamino)cyclo-hexyl]amino}-1-(2,2,2-trifluoroethyl)-1H-indol-2-yl)prop-2-yn-1-yl]amino}benzamide]	+ (+ = 0 μM ≤ SC150 < 0.05 μM)
COc1cc(-c2cccnc2)ccc1NCC#Cc1cc2c(NC3CCN(C)CC3)cccc2n1CC(F)(F)F [Compound 503A, 2-(3-{[2-methoxy-4-(pyridin-3-yl)phenyl]amino}prop-1-yn-1-yl)-N-(1-methylpiperidin-4-yl)-1-(2,2,2-trifluoroethyl)-1H-indol-4-amine]	++ (++ = 0.05 μM ≤ SC150 < 0.1 μM)
CNC(=O)c1ccc(NCC#Cc2cc3c(N[C@H]4CC[C@H](N5CCC(S(C)(=O)=O)CC5)CC4)cccc3n2CC(F)(F)F)c(OC)c1 [Compound 444A, 3-methoxy-N-methyl-4-{[3-(4-{[(1R,4R)-4-(4-methane-sulfonylpiperidin-1-yl)cyclohexyl]amino}-1-(2,2,2-trifluoroethyl)-1H-indol-2-yl)prop-2-yn-1-yl]amino}benzamide]	+ (+ = 0 μM ≤ SC150 < 0.05 μM)

The next lines start with the values.

SC150 (concentration of the compound required to increase the DNA binding activity by 50%)	Structure (SMILES)
+ (+ = 0 μM ≤ SC150 < 0.05 μM)	COc1cc(S(C)(=O)=O)ccc1NCC#Cc1cc2c(NC3CCC(=O)CC3)cccc2n1CC(F)(F)F [Compound 66A, 4-[(2-{3-[(4-methane-sulfonyl-2-methoxy-phenyl)amino]prop-1-yn-1-yl}-1-(2,2,2-trifluoroethyl)-1H-indol-4-yl)amino]cyclo-hexan-1-one]
+ (+ = 0 μM ≤ SC150 < 0.05 μM)	COC(=O)c1ccc(NCC#Cc2cc3c(N[C@@H]4CCN(CC(C)O)C[C@@H]4F)cccc3n2CC(F)(F)F)c(OC)c1 (mixture of isomers) [Compound 900A, methyl 4-{[3-(4-{[(3S,4R)-3-fluoro-1-(2-hydroxypropyl)piperidin-4-yl]amino}-1-(2,2,2-trifluoroethyl)-1H-indol-2-yl)prop-2-yn-1-yl]amino}-3-methoxybenzoate]
+ (+ = 0 μM ≤ SC150 < 0.05 μM)	COc1cc(S(N)(=O)=O)ccc1NCC#Cc1cc2c(NC3CCN(CCOC(=O)C(C)C)CC3)cccc2n1CC(F)(F)F [Compound 600A, 2-{4-[(2-{3-[(2-methoxy-4-sulfamoylphenyl)amino]prop-1-yn-1-yl}-1-(2,2,2-trifluoroethyl)-1H-indol-4-yl)amino]piperidin-1-yl}EtOAc]
+ (+ = 0 μM ≤ SC150 < 0.05 μM)	COc1cc(S(C)(=O)=O)ccc1NCC#Cc1cc2c(N[C@H]3CCN(C(=O)CN)C[C@H]3F)cccc2n1CC(F)(F)F [Compound 892A]
+ (+ = 0 μM ≤ SC150 < 0.05 μM)	COCC(O)CNC(=O)c1ccc(NCC#Cc2cc3c(N[C@H]4CCN(C)C[C@H]4F)cccc3n2CC(F)(F)F)c(OC)c1 (mixture of isomers) [Compound 816A]
+ (+ = 0 μM ≤ SC150 < 0.05 μM)	COc1cc(C(N)=O)ccc1NCC#Cc1cc2c(N[C@@H]3CCN(C)C[C@@H]3F)cccc2n1CC(F)(F)F [Compound 800A, 4-{[3-(4-{[(3S,4R)-3-fluoro-1-methylpiperidin-4-yl]amino}-1-(2,2,2-trifluoroethyl)-1H-indol-2-yl)prop-2-yn-1-yl]amino}-3-methoxybenzamide]
+ (+ = 0 μM ≤ SC150 < 0.05 μM)	CN1CC[C@@H](Nc2cccc3c2cc(C#CCNc2ccc(S(C)(=O)=O)cc2OCF)n3CC(F)(F)F)[C@@H](F)C1 [Compound 842A]
